“And” between values parts separate entries of the source, which are not always exact repeats. Equal entries are not always repeated. Where two headings read alike, the source gives them in different places.

What all share (type): biochemical
For test [1], the system named is amylase. Briefly: Amylase activity of B. subtilis Alkaline Protease composition after oxidizing agent treatment (Food Chemicals Codex method). The note with it: for Amylase % loss: 75 min.
For test [2], the target named is protease (Bacillus subtilis, UniProt P04189). Briefly: Protease activity of B. subtilis Alkaline Protease composition after oxidizing agent treatment (Food Chemicals Codex method).
protease (Bacillus subtilis, UniProt P04189), sequence (P04189 107-381): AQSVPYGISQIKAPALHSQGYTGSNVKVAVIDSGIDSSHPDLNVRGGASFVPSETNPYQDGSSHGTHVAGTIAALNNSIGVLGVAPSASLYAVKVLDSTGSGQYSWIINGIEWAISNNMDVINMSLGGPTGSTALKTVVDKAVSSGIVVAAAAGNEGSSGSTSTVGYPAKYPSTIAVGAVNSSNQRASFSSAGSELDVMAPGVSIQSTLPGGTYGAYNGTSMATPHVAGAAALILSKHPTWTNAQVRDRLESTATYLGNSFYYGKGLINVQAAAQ
Test [3] deals with T1, amylase (Sus scrofa, UniProt P00690).
T1 construct: purchased Cudahy Co; host or cells: pancreas (pancreatin)
T1 sequence (P00690 16-511): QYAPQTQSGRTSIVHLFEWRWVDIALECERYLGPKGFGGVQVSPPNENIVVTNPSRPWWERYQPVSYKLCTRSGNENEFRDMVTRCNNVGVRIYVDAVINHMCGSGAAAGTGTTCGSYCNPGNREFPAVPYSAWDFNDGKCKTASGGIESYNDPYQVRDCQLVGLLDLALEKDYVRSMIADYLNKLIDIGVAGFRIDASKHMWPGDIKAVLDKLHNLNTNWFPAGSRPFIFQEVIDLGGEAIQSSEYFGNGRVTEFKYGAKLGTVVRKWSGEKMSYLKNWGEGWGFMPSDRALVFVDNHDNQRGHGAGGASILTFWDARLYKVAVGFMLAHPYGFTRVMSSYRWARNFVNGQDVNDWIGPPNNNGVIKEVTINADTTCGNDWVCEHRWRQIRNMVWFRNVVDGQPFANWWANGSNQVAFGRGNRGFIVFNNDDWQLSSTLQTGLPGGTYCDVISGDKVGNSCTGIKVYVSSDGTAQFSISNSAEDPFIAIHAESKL
Briefly: Amylase activity of pancreatin after hypochlorite treatment. The protocol:
(§1) Pancreatin obtained from the Cudahy Co. was dissolved in isotonic salt solution (0.9% NaCl) to a concentration of 3.13 g. in 25 g. of solution. The solution pH was 6.5. Sodium hypochlorite solution (Clorox®) was added and the increments equalized by the addition of isotonic salt solution. The isotonic salt solution is used to avoid potency degradation of the solution upon standing. A similar lack of effect was noted when using an enzyme solution having a pH of 5.8 rather than 6.5. The enzyme mixture was treated for 11/4 hr. at room temperature and then assayed for protease and amylase activity. As in the prior Examples, the percent sodium hypochlorite is based on the solids content of the enzyme solution.
(§2) ^1, ^2 Amylase and protease activity were assayed by the same

The test system of test [4] is protease. In words: Protease activity of pancreatin after hypochlorite treatment. On the set-up: Protease Activity: unit not given beside the values. The note with it: for Protease Activity: pH 6.5, 0% control 27,300; for Protease % loss: pH 6.5, 75 min. The method, then:
as §1, §2

The test system of test [5] is amylase. Briefly: Amylase inactivation in dry enzyme mixture from Bacillus subtilis culture filtrate, spray dried product. The settings on record: 0.35% NaOCl based on weight of dry mixture, pH 6.2-6.6. The method, then:
(§3) Twenty five pounds of an unstandarized, dry enzyme mixture, obtained by drying the clarified culture filtrate from the aerobic fermentation of Bacillus subtilis in an aqueous nutrient culture medium containing assimilable C, N and mineral salts, and which was determined to contain neutral protease, alkaline protease and amylase, is admixed with one hundred pounds of water at 70°-85° F. and agitated to facilitate solution. The solution is adjusted to pH 6.2-6.6 by slow addition of 20% aqueous NaOH solution. Then, 1.67 pounds of Clorox® (containing 5.25% NaOCl) is slowly admixed with the foregoing enzyme solution to thereby result in the addition of 0.0877 pounds or 0.35% NaOCl based on the weight of the dry mixture.

In test [6] the test system is protease (both neutral and alkaline). Briefly: Protease retention in dry enzyme mixture from Bacillus subtilis culture filtrate, spray dried product. The note with it: 0.35% NaOCl based on weight of dry mixture; pH 6.2-6.6; final spray dried material vs starting material. The protocol: as §3
[7] abbreviates: Table II, treated solution, 0.3% based on weight of enzyme composition, final pH 6.5.
[8] abbreviates: Table III, spray-dried product, 0.3% based on weight of enzyme composition.

`OO` [hydrogen peroxide, reference compound]: the “Amylase Activity” value is on record as 1250 in test [1] and 236 in test [1] (pH 6.4). For the same compound, the “selective inactivation of amylase compared with hypochlorite (in words)” value in test [1] is given as “substantially less effective in selectively inactivating amylase”. For the same compound, the “Protease Activity” value was 157,512 in test [2] and 29,579 in test [2] (pH 6.4).

On to `[Na+].[O-][Cl+2]([O-])[O-]` [sodium chlorate, reference compound], for which the “effect on amylase activity” value in test [1] is “Neither of these salts had any effect”. In addition, the “effect on protease activity” value in test [2] is on record as “Neither of these salts had any effect”.

As for `OCl` [sodium hypochlorite], the Amylase Activity was found to be 242 in test [1] (0.125% ion salt, pH 6.3, 0% control 583); 16 in test [1] (0.25% ion salt, pH 6.3, 0% control 583); 11 in test [1] (0.40% ion salt, pH 6.3, 0% control 583); 3 in test [1] (setting [7]); 15 in test [1] (setting [8]); 467 in test [3] (1.8% on solids content, pH 6.5, room temperature, 0% control 1075). Moreover, the “Amylase Activity” value in test [3] (3.6% on solids content, pH 6.5, 0% control 1075) is reported as 31; in test [3] (7.2% on solids content, pH 6.5, 0% control 1075) it was 3; in test [3] (10.8% on solids content, pH 6.5, 0% control 1075), 0. The Amylase % loss in test [1] (0.125% ion salt, pH 6.3) is 55%; in test [1] (0.25% ion salt, pH 6.3) it was 97%; in test [1] (0.40% ion salt, pH 6.3) it was 98%. The Protease Activity in test [2] (0.125% ion salt, pH 6.3, 0% control 25,900) is given as 25,100; in test [2] (0.25% ion salt, pH 6.3, 0% control 25,900), 25,900; in test [2] (0.40% ion salt, pH 6.3, 0% control 25,900), 24,600; in test [2] (setting [7]), 27,365; in test [2] (setting [8]), 147,650; in test [4] (1.8% on solids content), 28,400. Besides, the figures for the “Protease Activity” value in test [4] (3.6% on solids content), in test [4] (7.2% on solids content) and in test [4] (10.8% on solids content) were 24,800, 19,100 and 11,200, respectively. Besides, in test [2] (1.25 h, 0.125% ion salt, pH 6.3, read-out: Protease % loss), the inhibition at 0.125 % turned out to be 3%. For the same compound, the inhibition at 0.25 % in test [2] (1.25 h, 0.25% ion salt, pH 6.3, read-out: Protease % loss) stood at 0%. In addition, in test [2] (1.25 h, 0.40% ion salt, pH 6.3, read-out: Protease % loss), the inhibition at 0.4 % is 5%. Moreover, in test [3] (1.25 h, 1.8% on solids content, pH 6.5, read-out: Amylase % loss), the inhibition at 1.8 % is 57%. For the same compound, the inhibition at 3.6 % in test [3] (1.25 h, 3.6% on solids content, pH 6.5, read-out: Amylase % loss) amounted to 97%. In addition, the inhibition at 7.2 % in test [3] (1.25 h, 7.2% on solids content, pH 6.5, read-out: Amylase % loss) stood at 100%. Further, in test [3] (1.25 h, 10.8% on solids content, pH 6.5, read-out: Amylase % loss), the inhibition at 10.8 % was 100%. Also, the Protease % loss in test [4] (1.8% on solids content) came out at 0%; in test [4] (3.6% on solids content) it was 9%; in test [4] (7.2% on solids content), 30%; in test [4] (10.8% on solids content), 59%. The “amylase destruction (in words)” value in test [5] is “immediately destroys the amylase”. Further, the amylase inactivated result in test [5] (final spray dried material vs starting material) is “about 98%”. For the same compound, the “protease retained in the final product” value in test [6] is listed as “greater than 90%”.

As for `[O-][Cl+3]([O-])([O-])O` [sodium perchlorate, reference compound], the “effect on amylase activity” value in test [1] is recorded as “Neither of these salts had any effect”. For the same compound, in test [2], the “effect on protease activity” value was “Neither of these salts had any effect”.

In test [1] (b. subtilis amylase, pH 6.3, 75 min), sodium chlorite displayed an Amylase % loss of 99%. Moreover, in test [2] (b. subtilis alkaline protease, pH 6.3, 75 min, 75 min), the Protease % loss was 0% and 1% and 8%. Moreover, in test [2] (pH 6.3), the Protease Activity is 40,800 and 39,900 and 37,200.

(Values after patent US4086139A, “Differential inactivation of amylase in amylase-protease mixtures” (GB Fermentation Industries Inc., priority 1976, dated 1978).)
